# According to publication PMC2655291 (BMC Structural Biology, 2009):
# Like-named read-outs stand apart in the source and are kept apart here.
# Tests used:
# NQO2 S16D mutant (human) = assay: SEC; analytical gel filtration of the purified mutant (data not shown); monomer and dimer
# [1] = target: T1, quinone reductase 2 (NQO2) (Homo sapiens, UniProt P16083)
# T1 sequence (P16083 1-231): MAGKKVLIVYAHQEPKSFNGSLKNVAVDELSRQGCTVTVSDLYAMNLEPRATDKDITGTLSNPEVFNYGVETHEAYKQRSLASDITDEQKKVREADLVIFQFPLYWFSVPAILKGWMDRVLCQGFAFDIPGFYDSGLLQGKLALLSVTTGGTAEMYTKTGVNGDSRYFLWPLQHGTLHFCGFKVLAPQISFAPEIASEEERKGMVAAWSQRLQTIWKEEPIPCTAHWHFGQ
# [2] = target: T1, quinone reductase 2 (NQO2); remark: listed apart in the source
compound,measurement,setting,value
NQO2 S16D mutant (enzyme),stoichiometry N,NQO2 S16D mutant (human),2
Cc1cn(-c2cc(NC(=O)c3ccc(C)c(Nc4nccc(-c5cccnc5)n4)c3)cc(C(F)(F)F)c2)cn1 [nilotinib],IC50,[1],381 nM
O=c1c(O)c(-c2ccc(O)c(O)c2)oc2cc(O)cc(O)c12 [quercetin],IC50,[2],42 nM
